target: hGYS1 enzyme (recombinant hGYS1/GN1 protein) (Homo sapiens (Human), UniProt P13807); assay: GYS1 coupled enzyme assay (PK/LDH); assay type: biochemical; conditions: hGYS1/GN1 50 nM, UDP-Glucose 0.8 mM, G6P 1 mM; geometric mean of at least 2 runs
Description: The GYS1 coupled enzyme assay is a kinetic biochemical assay that indirectly quantifies the rate of glycogen synthesis by coupling the conversion of GYS1 substrate UDP-glucose into UDP with downstream enzymatic reactions. UDP is released from UDP-glucose as glucose monomers are linked into the growing glycogen strand by GYS1. The coupled assay then proceeds with pyruvate kinase utilizing UDP and phospho(enol)pyruvate (PEP) to form pyruvate. Lactate dehydrogenase then converts pyruvate and NADH into lactate and NAD+. Oxidation of NADH to NAD+ can be measured continuously with a plate reader by quantifying the decrease in NADH absorbance at 340 nm over time.
Compounds that inhibit the hGYS1 enzyme and, subsequently, the downstream conversion of NADH to NAD+, were tested using assay ready plates (black, clear bottom 384 well plates) in a final DMSO reaction volume of 2.5% DMSO. The Assay Buffer contained 50 mM Tris pH 7.5, 2 mM MgCl2, and 100 mM KCl. Fresh stocks of BSA at a final concentration of 0.02% and TCEP at 1 mM were added before splitting buffer into hGYS1 buffer and substrate buffer. To the hGYS1 buffer, rabbit liver glycogen was added at a final concentration of 0.2% glycogen. Glucose-6-Phosphate was added at 1 mM, recombinant hGYS1/GN1 protein was added at 50 nM to the substrate buffer, phosphoenolpyruvate (PEP) was added at 2 mM, UDP-Glucose was added at 0.8 mM, NADH) was added at 0.6 mM, and Pyruvate Kinase/Lactate Dehydrogenase was added at 20 units/mL. The reaction was initiated by mixing hGYS1 buffer and substrate buffer at a 1:1 ratio. Both buffers were plated using a liquid dispensing device with hGYS1 buffer plated first followed by the substrate buffer. Plates were spun briefly to eliminate air bubbles and are immediately read in continuous mode at an absorbance of 340 nm, for 10 time points in one-minute increments, for a total of 10 minutes. The slope from these 10 time points was normalized to the positive and negative control wells. The duplicate % inhibition values are then averaged and fit to a Hill equation for dose response according to the Levenberg-Marquardt algorithm with the Hill equation maximum set to 100 and the minimum set to 0.
Unless otherwise specified, IC50 values are reported as the geometric mean of at least 2 assay runs on separate days. Each run represents the average of a technical replicate, where each compound was assayed twice in the same plate. […] A superscript “#” symbol in Table 2 indicates results from a single assay run.

Chain of hGYS1 enzyme (recombinant hGYS1/GN1 protein) (P13807 whole entry): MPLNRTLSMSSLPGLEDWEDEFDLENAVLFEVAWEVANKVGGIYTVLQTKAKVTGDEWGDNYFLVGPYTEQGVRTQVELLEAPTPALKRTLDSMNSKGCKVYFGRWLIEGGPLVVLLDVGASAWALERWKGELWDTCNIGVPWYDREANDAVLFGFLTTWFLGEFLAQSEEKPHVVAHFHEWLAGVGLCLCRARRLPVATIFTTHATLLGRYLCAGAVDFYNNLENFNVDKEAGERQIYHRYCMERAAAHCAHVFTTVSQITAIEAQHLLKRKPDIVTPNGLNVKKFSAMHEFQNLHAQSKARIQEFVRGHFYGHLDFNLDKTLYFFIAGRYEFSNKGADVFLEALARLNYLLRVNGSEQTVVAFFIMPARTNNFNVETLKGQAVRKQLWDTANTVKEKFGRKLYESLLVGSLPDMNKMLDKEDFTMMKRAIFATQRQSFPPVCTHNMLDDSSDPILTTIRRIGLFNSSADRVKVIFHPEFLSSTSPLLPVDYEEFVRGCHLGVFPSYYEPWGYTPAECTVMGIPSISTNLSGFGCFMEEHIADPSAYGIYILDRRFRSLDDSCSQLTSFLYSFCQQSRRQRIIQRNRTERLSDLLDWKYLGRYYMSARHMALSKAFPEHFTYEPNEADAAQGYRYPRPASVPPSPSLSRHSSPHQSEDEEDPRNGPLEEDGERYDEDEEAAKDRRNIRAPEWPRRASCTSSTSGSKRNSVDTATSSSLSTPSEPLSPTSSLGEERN
Chain of hGYS1 enzyme (recombinant hGYS1/GN1 protein) (P46976 whole entry partner): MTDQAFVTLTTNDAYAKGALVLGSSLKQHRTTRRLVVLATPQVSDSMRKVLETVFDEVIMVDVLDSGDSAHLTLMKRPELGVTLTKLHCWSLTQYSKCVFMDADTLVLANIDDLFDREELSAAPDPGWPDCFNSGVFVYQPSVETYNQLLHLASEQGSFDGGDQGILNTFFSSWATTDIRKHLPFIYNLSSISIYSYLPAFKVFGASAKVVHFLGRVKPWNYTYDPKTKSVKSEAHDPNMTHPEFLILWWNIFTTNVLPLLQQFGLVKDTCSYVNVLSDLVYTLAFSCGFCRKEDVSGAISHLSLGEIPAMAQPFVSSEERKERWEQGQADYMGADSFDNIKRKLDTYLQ

Structure (SMILES) | IC50
CC(=O)N1CC(CC(=O)N2C[C@H](F)C[C@H]2C(=O)N[C@@H](c2ccccc2)c2ccc(C(C)C)cc2)Oc2ccccc21 (stereo partly drawn) [Compound 116, (2S,4R)-1-[2-(4-acetyl-3,5-dihydro-2H-1,4-benzoxazin-2-yl)acetyl]-4-fluoro-N-[(S)-phenyl[4-(propan-2-yl)phenyl]methyl]pyrrolidine-2-carboxamide] | 0.121 µM
CC(Cn1cncn1)C(=O)N1C[C@H](F)C[C@H]1C(=O)N[C@@H](c1ccccc1)c1ccc(C(C)C)cc1 (stereo partly drawn) [Compound 120, (2S,4R)-4-fluoro-1-[2-methyl-3-(1H-1,2,4-triazol-1-yl)propanoyl]-N-[(S)-phenyl[4-(propan-2-yl)phenyl]methyl]pyrrolidine-2-carboxamide] | 0.343 µM
CC(C)c1ccc([C@@H](NC(=O)[C@@H]2C[C@@H](F)CN2C(=O)c2ccc3c(c2)NC(=O)CO3)c2ccccc2)cc1 [Compound 122, (2S,4R)-4-fluoro-1-(3-oxo-3,4-dihydro-2H-1,4-benzoxazine-6-carbonyl)-N-[(S)-phenyl[4-(propan-2-yl)phenyl]methyl]pyrrolidine-2-carboxamide] | 0.989 µM
CC(C)c1ccc([C@@H](NC(=O)[C@@H]2C[C@@H](F)CN2C(=O)c2cccc(-n3cncn3)c2)c2ccccc2)cc1 [Compound 123, (2S,4R)-4-fluoro-N-[(S)-phenyl[4-(propan-2-yl)phenyl]methyl]-1-[3-(1H-1,2,4-triazol-1-yl)benzoyl]pyrrolidine-2-carboxamide] | 1 µM
CC(Oc1cccnc1)C(=O)N1C[C@H](F)C[C@H]1C(=O)N[C@@H](c1ccccc1)c1ccc(C(C)C)cc1 (stereo partly drawn) [Compound 124, (2S,4R)-4-fluoro-N-[(S)-phenyl[4-(propan-2-yl)phenyl]methyl]-1-[2-(pyridin-3-yloxy)propanoyl]pyrrolidine-2-carboxamide] | 0.078 µM
Cc1cnn(C(C)C(=O)N2C[C@H](F)C[C@H]2C(=O)N[C@@H](c2ccccc2)c2ccc(C(C)C)cc2)c1 (stereo partly drawn) [Compound 127, (2S,4R)-4-fluoro-1-[2-(4-methyl-1H-pyrazol-1-yl)propanoyl]-N-[(S)-phenyl[4-(propan-2-yl)phenyl]methyl]pyrrolidine-2-carboxamide] | 0.318 µM
CC(C)c1ccc([C@@H](NC(=O)[C@@H]2C[C@@H](F)CN2C(=O)c2cc3n(n2)CCCNC3=O)c2ccccc2)cc1 [Compound 131, (2S,4R)-4-fluoro-1-{4-oxo-4H,5H,6H,7H,8H-pyrazolo[1,5-a][1,4]diazepine-2-carbonyl}-N-[(S)-phenyl[4-(propan-2-yl)phenyl]methyl]pyrrolidine-2-carboxamide] | 0.563 µM
CC(Cc1ccccn1)C(=O)N1C[C@H](F)C[C@H]1C(=O)N[C@@H](c1ccccc1)c1ccc(C(C)C)cc1 (stereo partly drawn) [Compound 132, (2S,4R)-4-fluoro-1-[2-methyl-3-(pyridin-2-yl)propanoyl]-N-[(S)-phenyl[4-(propan-2-yl)phenyl]methyl]pyrrolidine-2-carboxamide] | 0.099 µM
CC(C)c1ccc([C@@H](NC(=O)[C@@H]2C[C@@H](F)CN2C(=O)C2CCC3CCC(=O)N3C2)c2ccccc2)cc1 (stereo partly drawn) [Compound 139, (2S,4R)-4-fluoro-1-(3-oxo-octahydroindolizine-6-carbonyl)-N-[(S)-phenyl[4-(propan-2-yl)phenyl]methyl]pyrrolidine-2-carboxamide] | 0.357 µM
CC(=O)N1CC(F)(C(=O)N2C[C@H](F)C[C@H]2C(=O)N[C@@H](c2ccccc2)c2ccc(C(C)C)cc2)C1 [Compound 143, (2S,4R)-1-(1-acetyl-3-fluoroazetidine-3-carbonyl)-4-fluoro-N-[(S)-phenyl[4-(propan-2-yl)phenyl]methyl]pyrrolidine-2-carboxamide] | 0.323 µM
CC(=O)N1C[C@H]2C[C@@]2(C(=O)N2C[C@H](F)C[C@H]2C(=O)N[C@@H](c2ccccc2)c2ccc(C(C)C)cc2)C1 [Compound 148, (2S,4R)-1-[(1S,5S)-3-acetyl-3-azabicyclo[3.1.0]hexane-1-carbonyl]-4-fluoro-N-[(S)-phenyl[4-(propan-2-yl)phenyl]methyl]pyrrolidine-2-carboxamide] | 0.344 µM
CC(=O)N1C[C@]2(C(=O)N3C[C@H](F)C[C@H]3C(=O)N[C@@H](c3ccccc3)c3ccc(C(C)C)cc3)CC1CO2 [Compound 150, (2S,4R)-1-[(1S)-5-acetyl-2-oxa-5-azabicyclo[2.2.1]heptane-1-carbonyl]-4-fluoro-N-[(S)-phenyl[4-(propan-2-yl)phenyl]methyl]pyrrolidine-2-carboxamide] | 0.554 µM
CC(=O)N1CCC(C)(C(=O)N2C[C@H](F)C[C@H]2C(=O)N[C@@H](c2ccccc2)c2ccc(C(C)C)cc2)C1 (stereo partly drawn) [Compound 152, (2S,4R)-1-(1-acetyl-3-methylpyrrolidine-3-carbonyl)-4-fluoro-N-[(S)-phenyl[4-(propan-2-yl)phenyl]methyl]pyrrolidine-2-carboxamide] | 0.132 µM
CC(=O)N1CCC[C@H](C(=O)N2C[C@H](F)C[C@H]2C(=O)N[C@@H](c2ccccc2)c2ccc(C(C)C)cc2)C1 [Compound 153, (2S,4R)-1-[(3S)-1-acetylpiperidine-3-carbonyl]-4-fluoro-N-[(S)-phenyl[4-(propan-2-yl)phenyl]methyl]pyrrolidine-2-carboxamide] | 0.412 µM
CC(=O)N1CCC2(CC2C(=O)N2C[C@H](F)C[C@H]2C(=O)N[C@@H](c2ccccc2)c2ccc(C(C)C)cc2)C1 (stereo partly drawn) [Compound 156, (2S,4R)-1-{5-acetyl-5-azaspiro[2.4]heptane-1-carbonyl}-4-fluoro-N-[(S)-phenyl[4-(propan-2-yl)phenyl]methyl]pyrrolidine-2-carboxamide] | 0.304 µM
CC(=O)N1C2CCC1[C@@H](C(=O)N1C[C@H](F)C[C@H]1C(=O)N[C@@H](c1ccccc1)c1ccc(C(C)C)cc1)C2 (stereo partly drawn) [Compound 157, (2S,4R)-1-[(2S)-7-acetyl-7-azabicyclo[2.2.1]heptane-2-carbonyl]-4-fluoro-N-[(S)-phenyl[4-(propan-2-yl)phenyl]methyl]pyrrolidine-2-carboxamide] | 0.392 µM
CC(=O)N1CCO[C@@H](C)[C@@H]1C(=O)N1C[C@H](F)C[C@H]1C(=O)N[C@@H](c1ccccc1)c1ccc(C(C)C)cc1 [Compound 159, (2S,4R)-1-[(2S,3R)-4-acetyl-2-methylmorpholine-3-carbonyl]-4-fluoro-N-[(S)-phenyl[4-(propan-2-yl)phenyl]methyl]pyrrolidine-2-carboxamide] | 0.74 µM
COC1(CC(=O)N2C[C@H](F)C[C@H]2C(=O)N[C@@H](c2ccccc2)c2ccc(C(C)C)cc2)CN(C(C)=O)C1 [Compound 161, (2S,4R)-1-[2-(1-acetyl-3-methoxyazetidin-3-yl)acetyl]-4-fluoro-N-[(S)-phenyl[4-(propan-2-yl)phenyl]methyl]pyrrolidine-2-carboxamide] | 0.374 µM
CC(=O)N1CC2(CC(C(=O)N3C[C@H](F)C[C@H]3C(=O)N[C@@H](c3ccccc3)c3ccc(C(C)C)cc3)CO2)C1 (stereo partly drawn) [Compound 164, (2S,4R)-1-{2-acetyl-5-oxa-2-azaspiro[3.4]octane-7-carbonyl}-4-fluoro-N-[(S)-phenyl[4-(propan-2-yl)phenyl]methyl]pyrrolidine-2-carboxamide] | 0.467 µM
CC(=O)N1C[C@@H]2[C@@H](C(=O)N3C[C@H](F)C[C@H]3C(=O)N[C@@H](c3ccccc3)c3ccc(C(C)C)cc3)CO[C@@H]2C1 [Compound 165, (2S,4R)-1-[(3R,3aS,6aS)-5-acetyl-hexahydro-2H-furo[2,3-c]pyrrole-3-carbonyl]-4-fluoro-N-[(S)-phenyl[4-(propan-2-yl)phenyl]methyl]pyrrolidine-2-carboxamide] | 0.361 µM
CC(=O)N1CCCC(C)(C(=O)N2C[C@H](F)C[C@H]2C(=O)N[C@@H](c2ccccc2)c2ccc(C(C)C)cc2)C1 (stereo partly drawn) [Compound 168, (2S,4R)-1-(1-acetyl-3-methylpiperidine-3-carbonyl)-4-fluoro-N-[(S)-phenyl[4-(propan-2-yl)phenyl]methyl]pyrrolidine-2-carboxamide] | 0.439 µM
CC(=O)N1CC[C@@H](C)[C@H](C(=O)N2C[C@H](F)C[C@H]2C(=O)N[C@@H](c2ccccc2)c2ccc(C(C)C)cc2)C1 [Compound 170, (2S,4R)-1-[(3S,4R)-1-acetyl-4-methylpiperidine-3-carbonyl]-4-fluoro-N-[(S)-phenyl[4-(propan-2-yl)phenyl]methyl]pyrrolidine-2-carboxamide] | 0.306 µM
CC(=O)N1C[C@H]2CC[C@@H](C1)[C@@H]2C(=O)N1C[C@H](F)C[C@H]1C(=O)N[C@@H](c1ccccc1)c1ccc(C(C)C)cc1 [Compound 173, (2S,4R)-1-[(1R,5S,8S)-3-acetyl-3-azabicyclo[3.2.1]octane-8-carbonyl]-4-fluoro-N-[(S)-phenyl[4-(propan-2-yl)phenyl]methyl]pyrrolidine-2-carboxamide] | 0.844 µM

From US11814367B2, “Inhibitors of glycogen synthase 1 (GYS1) and methods of use thereof” (Maze Therapeutics, Inc., priority 2021, dated 2023)
